# Measurements: patent publication US9150566B2, “2-(1,2,3-triazol-2-yl)benzamide and 3-(1,2,3-triazol-2-YL)picolinamide derivatives as orexin receptor antagonists” (ACTELION PHARMACEUTICALS LTD., priority 2011, dated 2015)
# Where two headings read alike, the source gives them in different places.
# What was measured:
# human orexin-1 receptor = human orexin-1 receptor (Homo sapiens (Human), UniProt O43613); assay: In vitro intracellular calcium measurements (FLIPR), antagonistic activity on orexin-1 receptor; format: cell-based; details: read-out: IC50 OX1
# Procedure, shortened: (§1)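 Recombinant CHO lines bearing human OX1 or OX2 receptors received test antagonist 120 min before agonist addition.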
# CYP3A4 = CYP3A4 (Homo sapiens (Human), UniProt P08684); assay: CYP3A4 inhibition assay (human liver microsomes, testosterone 6β-hydroxylation); details: read-out: CYP3A4 IC50, 40 μM testosterone
# human orexin-2 receptor = human orexin-2 receptor (Homo sapiens (Human), UniProt O43614); assay: In vitro intracellular calcium measurements (FLIPR), antagonistic activity on orexin-2 receptor; format: cell-based; details: read-out: IC50 OX2
# Procedure, shortened: as §1
# [1] = CHO cells expressing human orexin-1 receptor, FLIPR, 3 nM orexin-A agonist, 120 min antagonist incubation, geometric mean if determined several times
# [2] = CHO cells expressing human orexin-2 receptor, FLIPR, 3 nM orexin-A agonist, 120 min antagonist incubation, geometric mean if determined several times
# CYP3A4, sequence (P08684 whole entry): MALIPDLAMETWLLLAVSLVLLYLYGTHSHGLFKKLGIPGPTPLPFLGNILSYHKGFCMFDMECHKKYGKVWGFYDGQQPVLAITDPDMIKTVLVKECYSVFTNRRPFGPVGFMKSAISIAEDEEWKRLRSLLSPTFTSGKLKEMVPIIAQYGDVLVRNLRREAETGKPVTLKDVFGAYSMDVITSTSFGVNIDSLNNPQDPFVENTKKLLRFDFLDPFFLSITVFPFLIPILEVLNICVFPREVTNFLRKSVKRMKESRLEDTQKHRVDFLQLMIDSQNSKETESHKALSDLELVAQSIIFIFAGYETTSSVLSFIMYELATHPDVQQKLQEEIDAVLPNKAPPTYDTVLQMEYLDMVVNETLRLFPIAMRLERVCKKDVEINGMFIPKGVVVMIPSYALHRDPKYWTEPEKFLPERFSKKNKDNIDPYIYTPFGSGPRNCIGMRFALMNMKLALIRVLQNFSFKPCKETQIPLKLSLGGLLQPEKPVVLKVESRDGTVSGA
# human orexin-2 receptor, sequence (O43614 whole entry): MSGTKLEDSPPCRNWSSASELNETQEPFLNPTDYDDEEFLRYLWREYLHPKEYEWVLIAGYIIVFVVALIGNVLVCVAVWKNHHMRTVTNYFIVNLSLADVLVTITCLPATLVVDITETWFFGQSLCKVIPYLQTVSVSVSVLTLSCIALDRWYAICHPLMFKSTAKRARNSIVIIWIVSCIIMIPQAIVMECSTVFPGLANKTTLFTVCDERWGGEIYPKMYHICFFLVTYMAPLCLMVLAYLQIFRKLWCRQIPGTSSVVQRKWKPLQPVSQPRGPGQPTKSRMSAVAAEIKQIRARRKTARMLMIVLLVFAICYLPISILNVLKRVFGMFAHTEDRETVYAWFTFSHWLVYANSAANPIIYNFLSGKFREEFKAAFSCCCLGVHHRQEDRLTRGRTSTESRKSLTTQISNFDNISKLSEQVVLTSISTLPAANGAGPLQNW
# human orexin-1 receptor, sequence (O43613 whole entry): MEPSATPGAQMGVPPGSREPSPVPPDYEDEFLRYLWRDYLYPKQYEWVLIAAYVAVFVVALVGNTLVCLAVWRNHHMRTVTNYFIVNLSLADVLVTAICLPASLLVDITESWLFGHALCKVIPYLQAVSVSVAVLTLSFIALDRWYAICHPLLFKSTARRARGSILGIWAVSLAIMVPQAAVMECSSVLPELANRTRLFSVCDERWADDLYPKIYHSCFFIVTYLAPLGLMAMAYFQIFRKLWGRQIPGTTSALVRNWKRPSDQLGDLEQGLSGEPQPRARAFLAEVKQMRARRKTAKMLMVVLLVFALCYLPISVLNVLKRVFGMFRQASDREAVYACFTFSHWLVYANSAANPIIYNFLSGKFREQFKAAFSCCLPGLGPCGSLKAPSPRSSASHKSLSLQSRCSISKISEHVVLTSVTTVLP
IC50 (human orexin-1 receptor; [1]) [nM],IC50 (CYP3A4) [µM],IC50 (human orexin-2 receptor; [2]) [nM],Structure (SMILES),IC50 (human orexin-1 receptor) [nM],IC50 (human orexin-2 receptor) [nM]
10,23,728,"Cc1cccc(C(=O)N2C[C@@H](C)OC[C@H]2Cc2cc(-n3nccn3)ccc2F)c1-n1nccn1 [Example 118, [(2R,5R)-5-(2-Fluoro-5-[1,2,3]triazol-2-yl-benzyl)-2-methyl-morpholin-4-yl]-(3-methyl-2-[1,2,3]triazol-2-yl-phenyl)-methanone]",,
6,19,593,"Cc1ccc(-n2nccn2)c(C(=O)N2CCOC[C@H]2Cc2cc(-n3nccn3)ccc2C)c1 [Example 119, [(R)-3-(2-Methyl-5-[1,2,3]triazol-2-yl-benzyl)-morpholin-4-yl]-(5-methyl-2-[1,2,3]triazol-2-yl-phenyl)-methanone]",,
26,18,1640,"Cc1ccc(-n2nccn2)cc1C[C@@H]1COCCN1C(=O)c1ccccc1-n1nccn1 [Example 121, [(R)-3-(2-Methyl-5-[1,2,3]triazol-2-yl-benzyl)-morpholin-4-yl]-(2-[1,2,3]triazol-2-yl-phenyl)-methanone]",,
6,18,1610,"Cc1cccc(C(=O)N2CCOC[C@H]2Cc2cc(-n3nccn3)ccc2Cl)c1-n1nccn1 [Example 122, [(R)-3-(2-Chloro-5-[1,2,3]triazol-2-yl-benzyl)-morpholin-4-yl]-(3-methyl-2-[1,2,3]triazol-2-yl-phenyl)-methanone]",,
9,22,997,"Cc1ccc(-n2nccn2)cc1C[C@@H]1COCCN1C(=O)c1cccc(C)c1-n1nccn1 [Example 124, [(R)-3-(2-Methyl-5-[1,2,3]triazol-2-yl-benzyl)-morpholin-4-yl]-(3-methyl-2-[1,2,3]triazol-2-yl-phenyl)-methanone]",,
7,22,626,"Cc1ccc(-n2nccn2)c(C(=O)N2CCOC[C@H]2Cc2cc(-n3nccn3)ccc2Cl)c1 [Example 125, [(R)-3-(2-Chloro-5-[1,2,3]triazol-2-yl-benzyl)-morpholin-4-yl]-(5-methyl-2-[1,2,3]triazol-2-yl-phenyl)-methanone]",,
40,17,1480,"O=C(c1ccccc1-n1nccn1)N1CCOC[C@H]1Cc1cc(-n2nccn2)ccc1Cl [Example 126, [(R)-3-(2-Chloro-5-[1,2,3]triazol-2-yl-benzyl)-morpholin-4-yl]-(2-[1,2,3]triazol-2-yl-phenyl)-methanone]",,
26,30,1500,"Cc1cccc(C(=O)N2CCOC[C@H]2Cc2cc(-n3nccn3)ccc2F)c1-n1nccn1 [Example 127, [(R)-3-(2-Fluoro-5-[1,2,3]triazol-2-yl-benzyl)-morpholin-4-yl]-(3-methyl-2-[1,2,3]triazol-2-yl-phenyl)-methanone]",,
12,26,188,"O=C(c1cc(Cl)ccc1-n1nccn1)N1CCOC[C@H]1Cc1cc(-n2nccn2)ccc1F [Example 129, (5-Chloro-2-[1,2,3]triazol-2-yl-phenyl)-[(R)-3-(2-fluoro-5-[1,2,3]triazol-2-yl-benzyl)-morpholin-4-yl]-methanone]",,
4,35,1130,"COc1ccc(-n2nccn2)c(C(=O)N2CCOC[C@H]2Cc2cc(-n3nccn3)ccc2F)c1 [Example 131, [(R)-3-(2-Fluoro-5-[1,2,3]triazol-2-yl-benzyl)-morpholin-4-yl]-(5-methoxy-2-[1,2,3]triazol-2-yl-phenyl)-methanone]",,
8,19,1170,"Cc1ccc(-n2nccn2)c(C(=O)N2CCOC[C@H]2Cc2cc(-n3nccn3)ccc2F)c1F [Example 132, (2-Fluoro-3-methyl-6-[1,2,3]triazol-2-yl-phenyl)-[(R)-3-(2-fluoro-5-[1,2,3]triazol-2-yl-benzyl)-morpholin-4-yl]-methanone]",,
22,37,2600,"COc1ccc(-n2nccn2)c(C(=O)N2CCOC[C@H]2Cc2cc(-n3nccn3)ccc2F)c1F [Example 133, (2-Fluoro-3-methoxy-6-[1,2,3]triazol-2-yl-phenyl)-[(R)-3-(2-fluoro-5-[1,2,3]triazol-2-yl-benzyl)-morpholin-4-yl]-methanone]",,
11,19,336,"COc1cc(C(=O)N2CCOC[C@H]2Cc2cc(-n3nccn3)ccc2F)c(-n2nccn2)cc1C [Example 134, [(R)-3-(2-Fluoro-5-[1,2,3]triazol-2-yl-benzyl)-morpholin-4-yl]-(5-methoxy-4-methyl-2-[1,2,3]triazol-2-yl-phenyl)-methanone]",,
16,30,1880,"O=C(c1cccc(Cl)c1-n1nccn1)N1CCOC[C@H]1Cc1cc(-n2nccn2)ccc1F [Example 135, (3-Chloro-2-[1,2,3]triazol-2-yl-phenyl)-[(R)-3-(2-fluoro-5-[1,2,3]triazol-2-yl-benzyl)-morpholin-4-yl]-methanone]",,
4,7.4,159,"O=C(c1ccc(C(F)(F)F)cc1-n1nccn1)N1CCOC[C@H]1Cc1cc(-n2nccn2)ccc1F [Example 138, [(R)-3-(2-Fluoro-5-[1,2,3]triazol-2-yl-benzyl)-morpholin-4-yl]-(2-[1,2,3]triazol-2-yl-4-trifluoromethyl-phenyl)-methanone]",,
10,13,191,"COc1cc(C(=O)N2CCOC[C@H]2Cc2cc(-n3nccn3)ccc2F)c(-n2nccn2)cc1Cl [Example 139, (4-Chloro-5-methoxy-2-[1,2,3]triazol-2-yl-phenyl)-[(R)-3-(2-fluoro-5-[1,2,3]triazol-2-yl-benzyl)-morpholin-4-yl]-methanone]",,
16,19,429,"Cc1ccc(C(=O)N2C[C@@H](C)OC[C@H]2Cc2cc(-n3ccnn3)ccc2F)c(-n2nccn2)c1 [Example 141, [(2R,5R)-5-(2-Fluoro-5-[1,2,3]triazol-1-yl-benzyl)-2-methyl-morpholin-4-yl]-(4-methyl-2-[1,2,3]triazol-2-yl-phenyl)-methanone]",,
5,9.2,287,"CC[C@@H]1CN(C(=O)c2cc(C)ccc2-n2nccn2)[C@H](Cc2cccc(-n3nccn3)c2)CO1 [Example 142, [(2R,5R)-2-Ethyl-5-(3-[1,2,3]triazol-2-yl-benzyl)-morpholin-4-yl]-(5-methyl-2-[1,2,3]triazol-2-yl-phenyl)-methanone]",,
19,9.1,485,"CC[C@@H]1CN(C(=O)c2ccccc2-n2nccn2)[C@H](Cc2cccc(-n3nccn3)c2)CO1 [Example 143, [(2R,5R)-2-Ethyl-5-(3-[1,2,3]triazol-2-yl-benzyl)-morpholin-4-yl]-(2-[1,2,3]triazol-2-yl-phenyl)-methanone]",,
5,9.6,104,"CC[C@@H]1CN(C(=O)c2ccc(C)cc2-n2nccn2)[C@H](Cc2cccc(-n3nccn3)c2)CO1 [Example 144, [(2R,5R)-2-Ethyl-5-(3-[1,2,3]triazol-2-yl-benzyl)-morpholin-4-yl]-(4-methyl-2-[1,2,3]triazol-2-yl-phenyl)-methanone]",,
34,22,1510,"O=C(c1ccccc1-n1nccn1)N1CCOC[C@H]1Cc1cc(F)cc(-n2nccn2)c1 [Example 145, [(R)-3-(3-Fluoro-5-[1,2,3]triazol-2-yl-benzyl)-morpholin-4-yl]-(2-[1,2,3]triazol-2-yl-phenyl)-methanone]",,
4,31,263,"Cc1ccc(C(=O)N2C[C@@H](C)OC[C@H]2Cc2cc(-c3ncccn3)ccc2F)c(-n2nccn2)c1 [Example 149, [(2R,5R)-5-(2-Fluoro-5-pyrimidin-2-yl-benzyl)-2-methyl-morpholin-4-yl]-(4-methyl-2-[1,2,3]triazol-2-yl-phenyl)-methanone]",,
9,32,506,"Cc1cccc(C(=O)N2C[C@@H](C)OC[C@H]2Cc2cc(-c3ncccn3)ccc2F)c1-n1nccn1 [Example 150, [(2R,5R)-5-(2-Fluoro-5-pyrimidin-2-yl-benzyl)-2-methyl-morpholin-4-yl]-(3-methyl-2-[1,2,3]triazol-2-yl-phenyl)-methanone]",,
4,15,129,"C[C@@H]1CN(C(=O)c2cc(Cl)ccc2-n2nccn2)[C@H](Cc2cc(-c3ncccn3)ccc2F)CO1 [Example 152, (5-Chloro-2-[1,2,3]triazol-2-yl-phenyl)-[(2R,5R)-5-(2-fluoro-5-pyrimidin-2-yl-benzyl)-2-methyl-morpholin-4-yl]-methanone]",,

Structure (SMILES),IC50 (human orexin-1 receptor; [1]) [nM],IC50 (CYP3A4) [µM],IC50 (human orexin-2 receptor; [2]) [nM],IC50 (human orexin-1 receptor) [nM],IC50 (human orexin-2 receptor) [nM]
"Cc1ccc(C(=O)N2CCOC[C@H]2Cc2cc(-n3nccn3)ccc2C)c(-n2nccn2)c1 [Example 123, [(R)-3-(2-Methyl-5-[1,2,3]triazol-2-yl-benzyl)-morpholin-4-yl]-(4-methyl-2-[1,2,3]triazol-2-yl-phenyl)-methanone]",,27,,5,939
"Cc1ccc(C(=O)N2CCOC[C@H]2Cc2cc(F)cc(-n3nccn3)c2)c(-n2nccn2)c1 [Example 146, [(R)-3-(3-Fluoro-5-[1,2,3]triazol-2-yl-benzyl)-morpholin-4-yl]-(4-methyl-2-[1,2,3]triazol-2-yl-phenyl)-methanone]",,40,282,3,
